Results reported in paper PMC7180572, “5-Alkylamino-N-phenylpyrazine-2-carboxamides: Design, Preparation, and Antimycobacterial Evaluation” (Molecules, 2020).
Like-named read-outs stand apart in the source and are kept apart here.

Experiments:
[1] = system: Acinetobacter baumanii ATCC 19606, DSM 30007; test: Antibacterial microdilution broth method (EUCAST); type: cell-based; conditions: Acinetobacter baumannii
[2] = system: Mycobacterium tuberculosis H37Ra ITM-M006710 (ATCC 9431); test: Microdilution broth, modified Microplate Alamar Blue Assay, whole cell growth inhibition; type: cell-based; conditions: Mycobacterium tuberculosis; in vitro, Middlebrook 7H9 broth, resazurin; read-out: MIC Mtb H37Ra
[3] = system: Staphylococcus aureus methicillin resistant ATCC 43300, CCM 4750; test: microbe, parasite or virus in culture; type: cell-based; conditions: ATCC 43300 / CCM 4750 / MRSA, read-out: MIC MRSA
[4] = system: Aspergillus fumigatus ATCC 204305; test: Antifungal microdilution broth method (EUCAST); type: cell-based; conditions: read-out: MIC AF
[5] = system: Candida albicans ATCC 24433, CCM 8320; test: Antifungal microdilution broth method (EUCAST); type: cell-based
[6] = system: Absidia corymbifera CCM 8077 (Lichtheimia corymbifera); test: Antifungal microdilution broth method (EUCAST); type: cell-based; conditions: read-out: MIC AC
[7] = system: Enterococcus faecalis ATCC 29212, CCM 4224; test: Antibacterial microdilution broth method (EUCAST); type: cell-based; conditions: read-out: MIC EF
[8] = system: Pseudomonas aeruginosa ATCC 27853, CCM 3955; test: Antibacterial microdilution broth method (EUCAST); type: cell-based; conditions: read-out: MIC PA
[9] = system: Escherichia coli ATCC 25922, CCM 3954; test: Antibacterial microdilution broth method (EUCAST); type: cell-based; conditions: read-out: MIC EC
[10] = system: Trichophyton interdigitale ATCC 9533, CCM 8377; test: Antifungal microdilution broth method (EUCAST); type: cell-based; conditions: read-out: MIC TI
[11] = system: Mycobacterium aurum DSM 43999 (ATCC 23366); test: Microdilution broth, modified Microplate Alamar Blue Assay, whole cell growth inhibition; type: cell-based; conditions: Mycolicibacterium aurum, read-out: MIC Mycobacterium aurum
[12] = system: Candida tropicalis ATCC 750, CCM 8264; test: Antifungal microdilution broth method (EUCAST); type: cell-based; conditions: read-out: MIC CT
[13] = system: Aspergillus flavus CCM 8363; test: Antifungal microdilution broth method (EUCAST); type: cell-based; conditions: read-out: MIC AFla
[14] = system: Candida parapsilosis ATCC 22019, CCM 8260; test: Antifungal microdilution broth method (EUCAST); type: cell-based; conditions: Lodderomyces parapsilosis
[15] = system: Candida krusei ATCC 6258, CCM 8271; test: Antifungal microdilution broth method (EUCAST); type: cell-based; conditions: Pichia kudriavzevii
[16] = system: Staphylococcus epidermidis ATCC 12228, CCM 4418; test: Antibacterial microdilution broth method (EUCAST); type: cell-based; conditions: read-out: MIC SE
HepG2 cells = test: HepG2 cytotoxicity, CellTiter 96 (MTS) assay; type: cell-based, human; conditions: for IC50: Homo sapiens, HepG2, 24 h, read-out: HepG2 IC50; for SI, selectivity index: IC50 (HepG2)/MIC against Mtb H37Ra (in µM)
[17] = system: Mycobacterium smegmatis DSM 43465 (ATCC 607); test: Microdilution broth, modified Microplate Alamar Blue Assay, whole cell growth inhibition; type: cell-based; conditions: Mycolicibacterium smegmatis, read-out: MIC Mycobacterium smegmatis
[18] = system: Staphylococcus aureus spp.aureus ATCC 29213, CCM 4223; test: Antibacterial microdilution broth method (EUCAST); type: cell-based; conditions: read-out: MIC SA
[19] = system: Klebsiella pneumoniae ATCC 10031, CCM 4415; test: Antibacterial microdilution broth method (EUCAST)

CCCCCCCCNc1cnc(C(=O)Nc2cccc(O)c2)cn1 [Compound 2f, N-(3-hydroxyphenyl)-5-(octylamino)pyrazine-2-carboxamide]
> 50 µM: IC50 (HepG2 cells)
250 µg/mL: MIC [17]
≥ 500 µg/mL: MIC [2] | MIC [11]
> 125 µM: MIC ([1]; 24h) | MIC ([1]; 48h) | MIC ([3]; 24 h) | MIC ([3]; 48 h) | MIC ([4]; ATCC204305, 24 h) | MIC ([4]; ATCC204305, 48 h) | MIC ([5]; 24 h, read-out: MIC CA) | MIC ([5]; 48 h, read-out: MIC CA) | MIC ([6]; CCM8077, 24 h) | MIC ([6]; CCM8077, 48 h) | MIC ([7]; 24 h) | MIC ([7]; 48 h) | MIC ([8]; 72 h) | MIC ([8]; 120 h) | MIC ([9]; 24 h) | MIC ([9]; 48 h) | MIC ([10]; 72 h) | MIC ([10]; 120 h) | MIC ([12]; 24 h) | MIC ([12]; 48 h) | MIC ([13]; CCM8363, 24 h) | MIC ([13]; CCM8363, 48 h) | MIC ([14]; 24 h, read-out: MIC CP) | MIC ([14]; 48 h, read-out: MIC CP) | MIC ([15]; 24 h, read-out: MIC CK) | MIC ([15]; 48 h, read-out: MIC CK) | MIC ([16]; 24 h) | MIC ([16]; 48 h) | MIC ([18]; 24 h) | MIC ([18]; 48 h) | MIC KP ([19]; 24h) | MIC KP ([19]; 48h)
223 to 225.9 °C: melting point

CCCNc1cnc(C(=O)Nc2ccc(O)cc2)cn1 [Compound 3a, N-(4-hydroxyphenyl)-5-(propylamino)pyrazine-2-carboxamide]
410 µM: IC50 (HepG2 cells)
> 500 µM: MIC ([1]; 24h) | MIC ([1]; 48h) | MIC ([3]; 24 h) | MIC ([3]; 48 h) | MIC ([4]; ATCC204305, 24 h) | MIC ([4]; ATCC204305, 48 h) | MIC ([5]; 24 h, read-out: MIC CA) | MIC ([5]; 48 h, read-out: MIC CA) | MIC ([6]; CCM8077, 24 h) | MIC ([6]; CCM8077, 48 h) | MIC ([7]; 24 h) | MIC ([7]; 48 h) | MIC ([8]; 72 h) | MIC ([8]; 120 h) | MIC ([9]; 24 h) | MIC ([9]; 48 h) | MIC ([10]; 72 h) | MIC ([10]; 120 h) | MIC ([12]; 24 h) | MIC ([12]; 48 h) | MIC ([13]; CCM8363, 24 h) | MIC ([13]; CCM8363, 48 h) | MIC ([14]; 24 h, read-out: MIC CP) | MIC ([14]; 48 h, read-out: MIC CP) | MIC ([15]; 24 h, read-out: MIC CK) | MIC ([15]; 48 h, read-out: MIC CK) | MIC ([16]; 24 h) | MIC ([16]; 48 h) | MIC ([18]; 24 h) | MIC ([18]; 48 h) | MIC KP ([19]; 24h) | MIC KP ([19]; 48h)
209.3 to 215.6 °C: melting point
≥ 500 µg/mL: MIC [11] | MIC [17]
15.6 µg/mL: MIC [2]
7.18: SI, selectivity index (HepG2 cells)

CCCCNc1cnc(C(=O)Nc2ccc(O)cc2)cn1 [Compound 3b, 5-(Butylamino)pyrazine-N-(4-hydroxyphenyl)-2-carboxamide]
208 to 211.4 °C: melting point
> 250 µM: MIC ([4]; ATCC204305, 24 h) | MIC ([4]; ATCC204305, 48 h) | MIC ([6]; CCM8077, 24 h) | MIC ([6]; CCM8077, 48 h) | MIC ([10]; 72 h) | MIC ([10]; 120 h) | MIC ([12]; 24 h) | MIC ([12]; 48 h) | MIC ([13]; CCM8363, 24 h) | MIC ([13]; CCM8363, 48 h) | MIC ([15]; 24 h, read-out: MIC CK) | MIC ([15]; 48 h, read-out: MIC CK) | MIC ([15]; read-out: MIC CK (Candida krusei))
≥ 500 µg/mL: MIC [11] | MIC [17]
31.2 µg/mL: MIC [2]
> 500 µM: MIC ([1]; 24h) | MIC ([1]; 48h) | MIC ([3]; 24 h) | MIC ([3]; 48 h) | MIC ([7]; 24 h) | MIC ([7]; 48 h) | MIC ([8]; 72 h) | MIC ([8]; 120 h) | MIC ([9]; 24 h) | MIC ([9]; 48 h) | MIC ([16]; 24 h) | MIC ([16]; 48 h) | MIC ([18]; 24 h) | MIC ([18]; 48 h) | MIC KP ([19]; 24h) | MIC KP ([19]; 48h)
3.46: SI, selectivity index (HepG2 cells)
378 µM: IC50 (HepG2 cells)
250 µM: MIC ([14]; 24 h, read-out: MIC CP) | MIC ([14]; 48 h, read-out: MIC CP) | MIC ([14]; read-out: MIC CP (Candida parapsilosis))
62.5 µM: MIC ([5]; 24 h, read-out: MIC CA) | MIC ([5]; 48 h, read-out: MIC CA) | MIC ([5]; read-out: MIC CA (Candida albicans))

CCCCCCNc1cnc(C(=O)Nc2ccc(O)cc2)cn1 [Compound 3d, 5-(Hexylamino)pyrazine-N-(4-hydroxyphenyl)-2-carboxamide]
58.6 µM: IC50 (HepG2 cells)
3.91 µg/mL: MIC [2]
250 µg/mL: MIC [17]
4.71: SI, selectivity index (HepG2 cells)
157.7 to 161.5 °C: melting point
≥ 500 µg/mL: MIC [11]
> 500 µM: MIC ([1]; 24h) | MIC ([1]; 48h) | MIC ([3]; 24 h) | MIC ([3]; 48 h) | MIC ([4]; ATCC204305, 24 h) | MIC ([4]; ATCC204305, 48 h) | MIC ([5]; 24 h, read-out: MIC CA) | MIC ([5]; 48 h, read-out: MIC CA) | MIC ([6]; CCM8077, 24 h) | MIC ([6]; CCM8077, 48 h) | MIC ([7]; 24 h) | MIC ([7]; 48 h) | MIC ([8]; 72 h) | MIC ([8]; 120 h) | MIC ([9]; 24 h) | MIC ([9]; 48 h) | MIC ([10]; 72 h) | MIC ([10]; 120 h) | MIC ([12]; 24 h) | MIC ([12]; 48 h) | MIC ([13]; CCM8363, 24 h) | MIC ([13]; CCM8363, 48 h) | MIC ([14]; 24 h, read-out: MIC CP) | MIC ([14]; 48 h, read-out: MIC CP) | MIC ([15]; 24 h, read-out: MIC CK) | MIC ([15]; 48 h, read-out: MIC CK) | MIC ([16]; 24 h) | MIC ([16]; 48 h) | MIC ([18]; 24 h) | MIC ([18]; 48 h) | MIC KP ([19]; 24h) | MIC KP ([19]; 48h)
